In patent US12630548B2, “Azetidine derivatives for the treatment of integrin associated diseases” (The University of Nottingham, priority 2020, dated 2026):

What follows are compounds tested against ανβ6 (Homo sapiens, UniProt P06756+P18564) (assay: Cell adhesion assay, αvβ6 integrin). Details: cell adhesion data; read-out: ανβ6 IC50.
Type: cell-based
Protocol: The assays were performed as described in the literature (P. A. Procopiou, N. A. Anderson, J. Barrett, T. N. Barrett, M. H. J. Crawford, B. J. Fallon, A. P. Hancock, J. Le, S. Lemma, R. P. Marshall, J. Morrell, J. M. Pritchard, J. E. Rowedder, P. Saklatvala, R. J. Slack, S. L. Sollis, C. J. Suckling, L. R. Thorp, G. Vitulli, et al., J. Med. Chem. 2018, 61, 8417-8443; S. B. Ludbrook, S. T. Barry, C. J. Delves, C. M. T. Horgan, Biochem. J. 2003, 369, 311-318).

Sequence of ανβ6 (P06756 31-889 limits assumed): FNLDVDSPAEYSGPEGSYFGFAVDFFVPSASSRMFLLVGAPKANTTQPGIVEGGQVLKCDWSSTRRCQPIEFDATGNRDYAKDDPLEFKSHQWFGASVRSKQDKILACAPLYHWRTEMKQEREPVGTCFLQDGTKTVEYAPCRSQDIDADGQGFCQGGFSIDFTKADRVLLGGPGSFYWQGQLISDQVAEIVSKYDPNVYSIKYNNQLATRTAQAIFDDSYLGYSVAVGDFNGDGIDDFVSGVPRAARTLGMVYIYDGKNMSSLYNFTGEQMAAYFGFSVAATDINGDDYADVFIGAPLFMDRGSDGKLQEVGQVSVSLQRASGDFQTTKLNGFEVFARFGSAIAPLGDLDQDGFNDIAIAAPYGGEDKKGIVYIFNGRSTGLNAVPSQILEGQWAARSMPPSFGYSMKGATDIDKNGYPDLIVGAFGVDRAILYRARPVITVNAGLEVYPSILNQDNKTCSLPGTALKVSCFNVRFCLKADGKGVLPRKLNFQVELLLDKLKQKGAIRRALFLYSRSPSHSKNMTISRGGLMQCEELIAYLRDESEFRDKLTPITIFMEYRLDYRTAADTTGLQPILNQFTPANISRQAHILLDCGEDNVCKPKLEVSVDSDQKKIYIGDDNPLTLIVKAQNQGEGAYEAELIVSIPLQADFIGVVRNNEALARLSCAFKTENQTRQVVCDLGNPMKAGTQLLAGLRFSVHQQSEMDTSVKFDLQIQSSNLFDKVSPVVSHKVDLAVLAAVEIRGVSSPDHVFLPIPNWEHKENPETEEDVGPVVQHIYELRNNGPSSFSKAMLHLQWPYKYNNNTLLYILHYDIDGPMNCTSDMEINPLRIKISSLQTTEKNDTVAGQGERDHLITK
Sequence of ανβ6 (P06756 891-1048 limits assumed): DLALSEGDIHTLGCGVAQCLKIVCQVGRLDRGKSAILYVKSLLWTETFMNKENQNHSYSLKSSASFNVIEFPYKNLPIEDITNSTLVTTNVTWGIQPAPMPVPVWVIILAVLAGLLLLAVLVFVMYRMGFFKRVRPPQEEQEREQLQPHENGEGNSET
Sequence of ανβ6 (P18564 22-788): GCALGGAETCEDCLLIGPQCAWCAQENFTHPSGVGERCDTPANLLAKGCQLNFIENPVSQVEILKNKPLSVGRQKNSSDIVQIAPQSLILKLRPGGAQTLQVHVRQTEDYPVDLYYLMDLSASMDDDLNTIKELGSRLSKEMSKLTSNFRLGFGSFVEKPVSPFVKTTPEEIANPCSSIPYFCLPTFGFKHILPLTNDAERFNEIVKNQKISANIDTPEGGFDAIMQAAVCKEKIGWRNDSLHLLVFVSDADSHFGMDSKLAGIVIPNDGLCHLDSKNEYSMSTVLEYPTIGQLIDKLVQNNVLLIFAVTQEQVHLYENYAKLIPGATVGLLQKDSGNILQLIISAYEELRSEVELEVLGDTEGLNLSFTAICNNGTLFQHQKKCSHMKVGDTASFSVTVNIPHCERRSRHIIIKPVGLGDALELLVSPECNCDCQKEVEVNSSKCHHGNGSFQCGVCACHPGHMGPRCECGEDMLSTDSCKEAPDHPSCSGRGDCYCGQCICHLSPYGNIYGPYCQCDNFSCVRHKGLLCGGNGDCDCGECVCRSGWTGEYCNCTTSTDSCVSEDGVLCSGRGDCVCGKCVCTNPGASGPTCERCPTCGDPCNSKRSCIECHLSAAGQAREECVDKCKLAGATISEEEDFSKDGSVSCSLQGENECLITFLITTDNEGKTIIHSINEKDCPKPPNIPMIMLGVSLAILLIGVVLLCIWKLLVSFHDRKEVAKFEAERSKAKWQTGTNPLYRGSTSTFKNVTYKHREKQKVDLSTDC

IC50, < 250 nM:
Cc1ccc(S(=O)(=O)N2CC(C(=O)NC(CNC(=O)CCCCc3ccc4c(n3)NCCC4)C(=O)O)C2)cc1 (racemic) [Example 1, 3-(5-(5,6,7,8-tetrahydro-1,8-naphthyridin-2-yl)pentanamido)-2-(1-(4-methylbenzenesulfonyl)azetidine-3-carboxamido)propanoic acid]
O=C(CCCCc1ccc2c(n1)NCCC2)NCC(NC(=O)C1CN(S(=O)(=O)c2ccc(F)cc2)C1)C(=O)O (racemic) [Example 2, 2-(1-(4-fluorobenzenesulfonyl)azetidine-3-carboxamido)-3-(5-(5,6,7,8-tetrahydro-1,8-naphthyridin-2-yl)pentanamido)propanoic acid]
Cc1ccccc1S(=O)(=O)N1CC(C(=O)NC(CNC(=O)CCCCc2ccc3c(n2)NCCC3)C(=O)O)C1 (racemic) [Example 3, 3-(5-(5,6,7,8-tetrahydro-1,8-naphthyridin-2-yl)pentanamido)-2-(1-(2-methylbenzenesulfonyl)azetidine-3-carboxamido)propanoic acid]
Cc1cccc(S(=O)(=O)N2CC(C(=O)NC(CNC(=O)CCCCc3ccc4c(n3)NCCC4)C(=O)O)C2)c1 (racemic) [Example 4, 3-(5-(5,6,7,8-tetrahydro-1,8-naphthyridin-2-yl)pentanamido)-2-(1-(3-methylbenzenesulfonyl)azetidine-3-carboxamido)propanoic acid]
O=C(CCCCc1ccc2c(n1)NCCC2)NCC(NC(=O)C1CN(S(=O)(=O)c2cccc(F)c2)C1)C(=O)O (racemic) [Example 5, 2-(1-(3-fluorobenzenesulfonyl)azetidine-3-carboxamido)-3-(5-(5,6,7,8-tetrahydro-1,8-naphthyridin-2-yl)pentanamido)propanoic acid]
O=C(CCCCc1ccc2c(n1)NCCC2)NCC(NC(=O)C1CN(S(=O)(=O)c2cccc(C(F)(F)F)c2)C1)C(=O)O (racemic) [Example 7, 3-(5-(5,6,7,8-tetrahydro-1,8-naphthyridin-2-yl)pentanamido)-2-(1-(3-(trifluoromethyl)benzenesulfonyl)azetidine-3-carboxamido)propanoic acid]
O=C(CCCCc1ccc2c(n1)NCCC2)NCC(NC(=O)C1CN(S(=O)(=O)c2cccc(OC(F)(F)F)c2)C1)C(=O)O (racemic) [Example 8, 3-(5-(5,6,7,8-tetrahydro-1,8-naphthyridin-2-yl)pentanamido)-2-(1-(3-(trifluoromethoxy)benzenesulfonyl)azetidine-3-carboxamido)propanoic acid]
O=C(CCCCc1ccc2c(n1)NCCC2)NCC(NC(=O)C1CN(S(=O)(=O)c2ccccc2)C1)C(=O)O (racemic) [Example 9, 2-(1-(phenylsulfonyl)azetidine-3-carboxamido)-3-(5-(5,6,7,8-tetrahydro-1,8-naphthyridin-2-yl)pentanamido)propanoic acid]
O=C(CCCCc1ccc2c(n1)NCCC2)NCC(NC(=O)C1CN(S(=O)(=O)c2cc(Cl)cc(Cl)c2)C1)C(=O)O (racemic) [Example 10, 2-(1-(3,5-dichlorobenzenesulfonyl)azetidine-3-carboxamido)-3-(5-(5,6,7,8-tetrahydro-1,8-naphthyridin-2-yl)pentanamido)propanoic acid]
Cc1cc(C)cc(S(=O)(=O)N2CC(C(=O)NC(CNC(=O)CCCCc3ccc4c(n3)NCCC4)C(=O)O)C2)c1 (racemic) [Example 11, 2-(1-(3,5-dimethylbenzenesulfonyl)azetidine-3-carboxamido)-3-(5-(5,6,7,8-tetrahydro-1,8-naphthyridin-2-yl)pentanamido)propanoic acid]
CS(=O)(=O)c1cccc(S(=O)(=O)N2CC(C(=O)NC(CNC(=O)CCCCc3ccc4c(n3)NCCC4)C(=O)O)C2)c1 (racemic) [Example 12]
Cc1cc(Cl)cc(S(=O)(=O)N2CC(C(=O)NC(CNC(=O)CCCCc3ccc4c(n3)NCCC4)C(=O)O)C2)c1 (racemic) [Example 13, 2-(1-(3-chloro-5-methylbenzenesulfonyl)azetidine-3-carboxamido)-3-(5-(5,6,7,8-tetrahydro-1,8-naphthyridin-2-yl)pentanamido)propanoic acid]
CCc1cccc(S(=O)(=O)N2CC(C(=O)NC(CNC(=O)CCCCc3ccc4c(n3)NCCC4)C(=O)O)C2)c1 (racemic) [Example 14, 2-(1-(3-ethylbenzenesulfonyl)azetidine-3-carboxamido)-3-(5-(5,6,7,8-tetrahydro-1,8-naphthyridin-2-yl)pentanamido)propanoic acid]
Cc1cccc(S(=O)(=O)N2CC(C)(C(=O)NC(CNC(=O)CCCCc3ccc4c(n3)NCCC4)C(=O)O)C2)c1 (racemic) [Example 15, 2-(3-methyl-1-(3-methylbenzenesulfonyl)azetidine-3-carboxamido)-3-(5-(5,6,7,8-tetrahydro-1,8-naphthyridin-2-yl)pentanamido)propanoic acid]
CCC1(C(=O)NC(CNC(=O)CCCCc2ccc3c(n2)NCCC3)C(=O)O)CN(S(=O)(=O)c2cccc(C)c2)C1 (racemic) [Example 16, 2-(3-ethyl-1-(3-methylbenzenesulfonyl)azetidine-3-carboxamido)-3-(5-(5,6,7,8-tetrahydro-1,8-naphthyridin-2-yl)pentanamido)propanoic acid]
Cc1cccc(S(=O)(=O)N2CC(F)(C(=O)NC(CNC(=O)CCCCc3ccc4c(n3)NCCC4)C(=O)O)C2)c1 (racemic) [Example 17, 2-(3-fluoro-1-(3-methylbenzenesulfonyl)azetidine-3-carboxamido)-3-(5-(5,6,7,8-tetrahydro-1,8-naphthyridin-2-yl)pentanamido)propanoic acid]
Cn1cnc(S(=O)(=O)N2CC(C(=O)NC(CNC(=O)CCCCc3ccc4c(n3)NCCC4)C(=O)O)C2)c1 (racemic) [Example 18, 2-(1-((1-methyl-1H-imidazol-4-yl)sulfonyl)azetidine-3-carboxamido)-3-(5-(5,6,7,8-tetrahydro-1,8-naphthyridin-2-yl)pentanamido) propanoic acid]
Cn1cc(S(=O)(=O)N2CC(C(=O)NC(CNC(=O)CCCCc3ccc4c(n3)NCCC4)C(=O)O)C2)cn1 (racemic) [Example 19, 2-(1-((1-methyl-1H-pyrazol-4-yl)sulfonyl)azetidine-3-carboxamido)-3-(5-(5,6,7,8-tetrahydro-1,8-naphthyridin-2-yl)pentanamido)propanoic acid]
O=C(CCCCc1ccc2c(n1)NCCC2)NCC(NC(=O)C1CN(S(=O)(=O)c2ccc(Cl)s2)C1)C(=O)O (racemic) [Example 20, 2-(1-((5-chlorothiophen-2-yl)sulfonyl)azetidine-3-carboxamido)-3-(5-(5,6,7,8-tetrahydro-1,8-naphthyridin-2-yl)pentanamido)propanoic acid]
O=C(CCCCc1ccc2c(n1)NCCC2)NCC(NC(=O)C1CN(S(=O)(=O)c2cccnc2)C1)C(=O)O (racemic) [Example 21, 2-(1-(pyridin-3-ylsulfonyl)azetidine-3-carboxamido)-3-(5-(5,6,7,8-tetrahydro-1,8-naphthyridin-2-yl)pentanamido)propanoic acid]
Cc1nc(S(=O)(=O)N2CC(C(=O)NC(CNC(=O)CCCCc3ccc4c(n3)NCCC4)C(=O)O)C2)cn1C (racemic) [Example 22, 2-(1-((1,2-dimethyl-1H-imidazol-4-yl)sulfonyl)azetidine-3-carboxamido)-3-(5-(5,6,7,8-tetrahydro-1,8-naphthyridin-2-yl)pentanamido)propanoic acid]
O=C(CCCCc1ccc2c(n1)NCCC2)NC[C@H](NC(=O)C1CN(S(=O)(=O)c2cc(Cl)cc(Cl)c2)C1)C(=O)O [Example 23, (S)-2-(1-(3,5-Dichlorobenzenesulfonyl)azetidine-3-carboxamido)-3-(5-(5,6,7,8-tetrahydro-1,8-naphthyridin-2-yl)pentanamido)propanoic acid]
Cc1cc(C)cc(S(=O)(=O)N2CC(C(=O)N[C@@H](CNC(=O)CCCCc3ccc4c(n3)NCCC4)C(=O)O)C2)c1 [Example 24, (S)-2-(1-(3,5-Dimethylbenzenesulfonyl)azetidine-3-carboxamido)-3-(5-(5,6,7,8-tetrahydro-1,8-naphthyridin-2-yl)pentanamido)propanoic acid]
Cc1cc(Cl)cc(S(=O)(=O)N2CC(C(=O)N[C@@H](CNC(=O)CCCCc3ccc4c(n3)NCCC4)C(=O)O)C2)c1 [Example 25, (S)-2-(1-(3-Chloro-5-methylbenzenesulfonyl)azetidine-3-carboxamido)-3-(5-(5,6,7,8-tetrahydro-1,8-naphthyridin-2-yl)pentanamido)propanoic acid]
CCc1cccc(S(=O)(=O)N2CC(C(=O)N[C@@H](CNC(=O)CCCCc3ccc4c(n3)NCCC4)C(=O)O)C2)c1 [Example 26, (S)-2-(1-(3-Ethylbenzenesulfonyl)azetidine-3-carboxamido)-3-(5-(5,6,7,8-tetrahydro-1,8-naphthyridin-2-yl)pentanamido)propanoic acid]
O=C(CCCCc1ccc2c(n1)NCCC2)NC[C@H](NC(=O)C1CN(S(=O)(=O)c2cccc(Cl)c2)C1)C(=O)O [Example 27, (S)-2-(1-(3-Chlorobenzenesulfonyl)azetidine-3-carboxamido)-3-(5-(5,6,7,8-tetrahydro-1,8-naphthyridin-2-yl)pentanamido)propanoic acid]
COc1cccc(S(=O)(=O)N2CC(C(=O)N[C@@H](CNC(=O)CCCCc3ccc4c(n3)NCCC4)C(=O)O)C2)c1 [Example 28, (S)-2-(1-(3-Methoxybenzenesulfonyl)azetidine-3-carboxamido)-3-(5-(5,6,7,8-tetrahydro-1,8-naphthyridin-2-yl)pentanamido)propanoic acid]
